Test results from patent US20260176274A1, “ENAMINE N-OXIDE TOOLS FOR TARGET IDENTIFICATION APPLICATIONS” (DANA-FARBER CANCER INSTITUTE, INC., priority 2022, published 2026).
Entries after “also recorded” stand apart in the source; their conditions may differ.

Legend:
[1] = target: T1, CA2 (Homo sapiens, UniProt P00918); experiment: In cellulo BARS labeling in live HEK293T cells, immunoblot against CA2; assay type: cell-based; conditions: probe 5 μM 2 h, wash, B2(OH)4 100 μM 10 min
T1 construct: endogenous in cells; host or cells: HEK293T
Description: HEK293T cells were cultured in DMEM containing 10% FBS (Sigma), 100 units/mL penicillin, and 0.1 mg/mL streptomycin (Sigma) in a humidified chamber at 37° C. under an ambient atmosphere with 5% CO2. After culturing to >80% confluency in 150 mm plates, the plates were removed from the incubator, the media was aspirated, and the cells were trypsinized at 37° C. with 0.25% trypsin, 0.1% EDTA in HBSS (3 mL). After 3 min, complete growth medium (7 mL) was added to the detached cells, and the cell suspension was transferred to a 50 mL centrifuge tube. Cells were pelleted (400×g, 4 min, 23° C.) and washed with 2×20 mL PBS, pH 7.4. At this point, the density of the cell suspension in PBS was determined by the trypan blue exclusion method. The cells were pelleted once more, and the volume of PBS was adjusted to produce a cell suspension with a final density of 2×10^7 cells/mL. The cell suspension was aliquoted into 2 mL microcentrifuge tubes (3×1 mL, 2×10^7 cells each). […] Competitor 21′ (50 μM final concentration, from a 500 mM stock in DMSO) was also added to the third tube. The samples were incubated at 37° C. with end-over-end rotation. After 2 h of incubation, the cells were pelleted (400×g, 4 min, 23° C.) and washed once with PBS, pH 7.4.

[2] = target: T2, carbonic anhydrase (CA) (Bos taurus, UniProt P00921); experiment: Ligand-directed labeling of equimolar recombinant BSA/CA mixture, in-gel fluorescence; assay type: binding; conditions: equimolar BSA and CA; probe 200 nM, B2(OH)4 100 μM, 10 min, PBS pH 7.4
T2 sequence (P00921 whole entry): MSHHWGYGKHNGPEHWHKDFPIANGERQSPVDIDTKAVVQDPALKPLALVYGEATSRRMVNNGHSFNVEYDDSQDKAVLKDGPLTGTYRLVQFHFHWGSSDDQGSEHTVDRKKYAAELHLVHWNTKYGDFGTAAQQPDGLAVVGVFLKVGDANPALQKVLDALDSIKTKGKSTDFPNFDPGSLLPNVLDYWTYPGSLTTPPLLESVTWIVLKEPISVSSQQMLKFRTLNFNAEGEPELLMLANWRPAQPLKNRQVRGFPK
Description: An equimolar suspension of recombinant BSA and recombinant CA was prepared by combining BSA (22 μg, 1 mg/mL in PBS, pH 7.4) and CA (10 pg, 1 mg/mL in PBS, pH 7.4) in PBS, pH 7.4 (1 mL). This was approximately 333 nM of each protein. For each reaction, an aliquot of this mixture (97 μL) was added to a microcentrifuge tube. […] Sulfonamide competitor (21′, 1 μL, 5 mM solution in 1% DMSO/PBS; 50 μM final concentration) or PBS, pH 7.4 (1 μL) vehicle control was added to the samples. The tubes were incubated at rt for 30 min. Tetrahydroxydiboron (1 μL, 10 mM solution; 100 μM final concentration) was subsequently added with gentle mixing. The tubes were incubated at rt for an additional 10 min. Subsequently, CuAAC click-cocktail solution containing TAMRA-azide (6 μL) was added and the tubes were incubated at rt in the dark for 1 h.
For sample preparation, 5× sample loading buffer (25 μL) was added directly to the TAMRA-modified BSA/CA samples. The samples were subsequently heated to 95° C. for 10 min and then subjected to SDS-PAGE and in-gel fluorescence imaging. In-gel fluorescence imaging was performed on a Typhoon™ FLA 9500 (GE) at 532 nm with photomultiplier tube (PMT) setting of 300 V.

[3] = target: T1, CA2; experiment: Labeling of endogenous CA in HEK293T cell lysate, streptavidin blot or pulldown and immunoblot against CA2; assay type: binding; conditions: probe 200 nM; diboron 100 μM 10 min or UV irradiation 10 min
Description: For sample preparation, 5× sample loading buffer was added directly at least 10 μg aliquot of the clicked cell lysate clicked with biotin (picolyl) azide. The samples were subsequently heated to 95° C. for 10 min and loaded onto a BioRad Mini-PROTEAN® TGX™ Precast Protein gel, 4-20% (15 μL) and run in freshly prepared Tris-glycine running buffer (160 V, 50 min). The gel was washed (3×DI water) and transferred to a 0.2 μm PVDF membrane. After transfer, the membrane was washed (3×TBST) and blocked with 5% fish skin gelatin (or any appropriate blocking buffer for Western blot) in TBST (rt, 1 h), and subsequently incubated with the appropriate primary antibody (1:1000 dilution in 5% fish skin gelatin in TBST, rt, 1 h). The membrane was washed (3×TBST) and incubated with the appropriate secondary antibody (1:10000 dilution in 5% fish gelatin in TBST, rt, 1 h). The membrane was again washed thoroughly with TBST and imaged using a chemiluminescence imager (Amersham™ Imager 600, GE).
Samples were loaded onto a Bio-Rad Mini-PROTEAN® TGX™ Precast Protein 15-well gel, 4-20% (15 μL) alongside All Blue Prestained Protein Standard (Bio-Rad, 5 μL) as a ladder, and run in freshly prepared Tris-glycine running buffer (180 V, 45 min). The gel was washed (3×50 mL deionized water) and transferred to a 0.2 m low fluorescence PVDF membrane (Bio-Rad) using a semi-dry transfer apparatus (Bio-Rad Trans-Blot® Turbo™ Transfer System) and preprogrammed transfer setting (1.3 A, 25 V, 10 min).

[4] = target: T3, carbonic anhydrase (Bos taurus, UniProt P00921); experiment: Labeling site identification on recombinant carbonic anhydrase by nano-LC-MS/MS; parameters: species or system bovine; conditions: probe 10 μM, B2(OH)4 100 μM
T3 construct: purchased MP Biomedicals; host or cells: bovine erythrocytes
T3 sequence (P00921 whole entry): as above
Description: BARS probe 21′a: Enamine N-oxide 21′a (10 μL, 500 μM in PBS, pH 7.4; 10 μM final concentration) was added to an aliquot of recombinant CA from bovine erythrocytes ([…], MP Biomedicals) suspended in 480 μL PBS, pH 7.4 in a microcentrifuge tube and incubated at rt for 30 min. Tetrahydroxydiboron (10 μL, 5 mM in PBS, pH 7.4; 100 μM final concentration) was subsequently added and gently mixed. The tubes were incubated at rt for an additional 10 min. Subsequently, the sample was concentrated via spin filtration (Amicon® Ultra-0.5 mL, UFC500324, 10 kDa MWCO) following the manufacturer's recommended protocol. PBS was added after each filtration cycle and the concentration was repeated for a total of five times. The eluate was collected in a clean microcentrifuge tube and its concentration determined by NanoDrop (Thermo Fisher Scientific™).
An aliquot of carbonic anhydrase labeled with enamine N-oxide 21′a (prepared from the above procedure) was reduced with dithiothreitol (10 mM final concentration, 56° C., 30 min), alkylated with iodoacetamide (22.5 mM final concentration, rt, 30 min protected from light), and digested overnight with Glu-C (1:20) at 37° C. in 100 mM ammonium bicarbonate. Peptides were desalted using SP3 beads and analyzed by nano-LC-MS/MS using a nanoAcquity UPLC system interfaced to a QExactive HF mass spectrometer (Ficarro et al., Anal. Chem., 9:3440-3447 (2009)). […]

[5] = target: T2, carbonic anhydrase (CA); experiment: Intact mass spectrometry of recombinant carbonic anhydrase labeled with probe; assay type: binding, bovine; parameters: purchased MP Biomedicals; host or cells: bovine erythrocytes; conditions: for labeling of CA (intact mass spectrometry): probe 10 μM, B2(OH)4 100 μM or UV irradiation 10 min
Description: Tetrahydroxydiboron (10 μL, 5 mM in PBS, pH 7.4; 100 μM final concentration) was subsequently added and gently mixed. The tubes were incubated at rt for an additional 10 min. Subsequently, the sample was concentrated via spin filtration (Amicon® Ultra-0.5 mL, UFC500324, 10 kDa MWCO) following the manufacturer's recommended protocol. PBS was added after each filtration cycle and the concentration was repeated for a total of five times. The eluate was collected in a clean microcentrifuge tube and its concentration determined by NanoDrop (Thermo Fisher Scientific™).
The samples were then transferred onto a 24-well plate and UV irradiated (365 nm) for 10 min on ice. After every 2 min of irradiation, the plate was rotated […] to ensure complete and equal UV exposure. After irradiation, the samples were transferred to a spin filtration column (Amicon® Ultra-0.5 mL, UFC500324, 10 kDa MWCO) and concentrated following the manufacturer's recommended protocol. PBS was added after each filtration cycle, and the concentration was repeated for a total of five times. The eluate was collected in a clean microcentrifuge tube and its concentration determined by NanoDrop (Thermo Fisher Scientific™).
Replicate samples of carbonic anhydrase (n=4; labeled with enamine N-oxide 21′a or diazirine 21′b) were desalted on a self-packed column (500 μm I.D. fused silica packed with 5 cm POROSR2 resin) and gradient eluted (0→100% B in 1 min, A=200 mM acetic acid in water, B=200 mM acetic acid in acetonitrile) to the mass spectrometer (LTQ XL mass spectrometer, Thermo Fisher Scientific; spray voltage=5 kV). The mass spectrometer recorded full scan profile spectra n z 300-2000. Mass spectra were deconvoluted using MagTran version 1.03b2 (Zhang et al., J. Am. Chem. Soc. Mass. Spectrom., 3:225-244 (1998)). Percent labeling was calculated as intensity labeled protein/(intensity unlabeled protein+intensity labeled protein)×100%.

[6] = tested on: validated targets; experiment: Target identification in cell lysate: BARS probe, diboron activation, streptavidin pulldown, immunoblot against validated targets; assay type: binding; conditions: K562 (24′a) or HepG2 (26′a) cell lysate; probe 1 μM, B2(OH)4 100 μM 10 min
Description: The click-modified cell lysate (3 mg) was transferred to 15 mL centrifuge tubes and precipitated via methanol/chloroform precipitation using the following protocol. Methanol (6 mL) was added to the lysate and vortexed. Chloroform (1.5 mL) was subsequently added and vortexed. Finally, water (4 mL) was added and vortexed. The samples were centrifuged (3000×g, 5 min, 4° C.). The top aqueous layer was removed, and methanol (8 mL) was subsequently added and vortexed. The samples were centrifuged (3000×g, 5 min, 4° C.), the supernatant was removed, and the methanol wash was repeated once more. […]
Samples were loaded onto a Bio-Rad Mini-PROTEAN® TGX™ Precast Protein 15-well gel, 4-20% (15 μL) alongside All Blue Prestained Protein Standard (Bio-Rad, 5 μL) as a ladder, and run in freshly prepared Tris-glycine running buffer (180 V, 45 min). The gel was washed (3×50 mL deionized water) and transferred to a […] low fluorescence PVDF membrane (Bio-Rad) using a semi-dry transfer apparatus (Bio-Rad Trans-Blot® Turbo™ Transfer System) and preprogrammed transfer setting (1.3 A, 25 V, 10 min). […]
Enamine N-oxide probe (15 μL; 200 nM or 1 μM final concentration for probe 21′a, […] for probes 22′a-26′a) was added to a microcentrifuge tube containing cell lysate (3 mg, as determined by BCA assay) suspended in cold NP40 lysis buffer (1.455 mL). […]

labeling of CA (intact mass spectrometry) [5] [%] | SMILES | labeling of endogenous CA in HEK293T cell lysate [3] | additional targets pulled down [6] | also measured
51.8 | C#CCCC[N+](C)([O-])C(Br)=CC(Cl)CCCC(=O)NCCCOCCOCCOCCCNC(=O)c1ccc(S(N)(=O)=O)cc1 (centres unmarked) [21′a, 23-Bromo-21-chloro-N-methyl-1,17-dioxo-N-(pent-4-yn-1-yl)-1-(4-sulfamoylphenyl)-6,9,12-trioxa-2,16-diazatricos-22-en-23-amine oxide] | could also be labeled; also recorded: superior labeling |  | target identification in live HEK293T cells (CA2) [1]: positively identified; selectivity of labeling, CA over BSA [2]: CA was preferentially labeled over BSA; labeling sites on CA N-terminal peptide [4]: His2 or His3; improvement of CA labeling, enamine N-oxide over diazirine ([5]; 51.8% vs 3.6% labeling): 14.4 fold
3.6 | C#CCCC1(CCNC(=O)CCOCCOCCOCCNC(=O)c2ccc(S(N)(=O)=O)cc2)N=N1 [21′b, N-(15-(3-(but-3-yn-1-yl)-3H-diazirin-3-yl)-12-oxo-3,6,9-trioxa-13-azapentadecyl)-4-sulfamoylbenzamide, reference compound] |  |  | 
 | C#CCCC[N+](C)([O-])/C(Br)=C/C(Cl)CCCC(=O)NCCCCCCNc1cc(Nc2ncc(C(=O)Nc3c(C)cccc3Cl)s2)nc(C)n1 (centres unmarked) [24′a, (Z)-1-Bromo-3-chloro-7-((6-((6-((5-((2-chloro-6-methylphenyl)carbamoyl)thiazol-2-yl)amino)-2-methylpyrimidin-4-yl)amino)hexyl)amino)-N-methyl-7-oxo-N-(pent-4-yn-1-yl)hept-1-en-1-amine oxide] |  | ABL and p38 pulled down | 
 | C#CCCC[N+](C)([O-])/C(Br)=C/C(Cl)CCCC(=O)N(C)[C@@H]1C[C@H]2O[C@@](C)([C@@H]1OC)n1c3ccccc3c3c4c(c5c6ccccc6n2c5c31)C(=O)NC4 (stereo partly drawn) [26′a, (Z)-1-Bromo-3-chloro-7-(((5S,6R,7R,9R)-6-methoxy-5-methyl-14-oxo-6,7,8,9,15,16-hexahydro-5H,14H-17-oxa-4b,9a,15-triaza-5,9-methanodibenzo[b,h]cyclonona[jkl]cyclopenta[e]-as-indacen-7-yl)(methyl)amino)-N-methyl-7-oxo-N-(pent-4-yn-1-yl)hept-1-en-1-amine oxide] |  | PKC and SRC pulled down | 
 | CCN(CC)C(=O)C=CCCc1ccccc1 [compound 13, reference compound] | barely perceptible |  | protein labeled (intact mass spectrometry of CA) ([5]; N-oxide probe plus diboron or diazirine probe plus UV irradiation): < 1%
